For series [1], the system named is NCI-H1975 NSCLC cells carrying activating EGFR T790M mutation. The experiment in a line: Cell viability of NCI-H1975 cells (CCK-8 assay). The following applies: 36 hour treatment, CCK-8, FIG. 13. It counts as cell-based, human. As for the experimental part:
NCI-H1975 is a model human NSCLC cell line that expresses activating EGER-T790M mutant, resulting in uncontrolled cell proliferation. Efficient inhibition of EGFR tyrosine kinase activity by TKI can affect cell growth, causing cell death. Here the inventors studied the effect of F1-osimertinib on cell viability of NCI-H1975 cells by […] (Cell Counting Kit-8 (CCK-8), Bimake.com, Houston, Tex.). 4,000 exponentially growing cells in 100 ul culture media were seeded in triplicate into 96-well plates and cultured to 70-80% continency. Cells were treated with indicated concentration of F1-osimertinib for 36 hour. 10 ul/well CCK-8 were added and continuously incubated till the absorbance (OD) at 450 nm reaches 0.8 measured by a microplate reader. Medium only wells were served as blank control. The cell viability was calculated as follows: Cell viability (%)=[A(F1-osimertinib)−A(blank)]/[A(solvent)−A(blank)]×100%. A: OD value measured.

Series [2] in a line: Co-incubation in mouse plasma (ex-vivo stability, LC-MS/MS). The following applies: after incubating for two hours, co-incubated, FIG. 12. It counts as in vitro ADME, CD-1 mouse.
Description: (§1) Briefly, 40 μL of osimertinib was co-incubated with an equal volume of one of the compounds described in this invention at the same concentration in blank plasma (human, beagle dog, Sprague-Dawley rat or CD-1 mouse). The tubes were incubated in a dry bath incubator for six time points ranging from 0 to 120 minutes. At each time point, the plasma was crashed with 200 μL internal standard working solution in acetonitrile, then vortexes and centrifuged. A portion of the supernatant was then transferred to autosampler vials for injection into the LC-MS/MS system. Chromatographic retention of osimertinib and the compounds described in the invention was obtained on an ACE 3 C18, 2.1×50 min, 3.0 μm column (Aberdeen, Scotland) under gradient conditions with a flow rate of 0.3 mL/minute. Analytes were detected by multiple reaction monitoring using an MDS Sciex API 4000 mass spectrometer (Applied Biosystems/MDS Sciex, Concord, Ontario, Canada) in positive mode. Data was captured using Analyst®, Version 1.6.2 (Applied Biosystems/MDS Sciex, Foster City, Calif.) and then exported to Excel® (Microsoft, Seattle, Wash.) for further data reduction.
A short description of series [3]: Co-incubation in rat plasma (ex-vivo stability, LC-MS/MS). It counts as in vitro ADME, Sprague-Dawley rat. As to conditions: after incubating for two hours, co-incubated, FIG. 10.
Description: as §1
Series [4] in a line: Co-incubation in human plasma (ex-vivo stability, LC-MS/MS). As to conditions: co-dosed with osimertinib at 1:1 ratio, 0 to 120 minutes, FIG. 9. It counts as in vitro ADME.
Description: as §1
Series [5] is described as follows: Co-incubation in dog plasma (ex-vivo stability, LC-MS/MS). It counts as in vitro ADME. The following applies: beagle plasma, after incubating for two hours, co-incubated, FIG. 11.
Description: as §1

Molecules are shown by their SMILES.

For the compound `[2H]C([2H])([2H])n1cc(-c2ccnc(Nc3cc(NC(=O)C(=C)F)c(N(C)CCN(C)C)cc3OC)n2)c2ccccc21` [F1-D3-osimertinib], in series [1], the “inhibition of NSCLC cell growth (cell viability)” value is listed as “significant inhibition of NSCLC cell growth”.

Take `C=C(F)C(=O)Nc1cc(Nc2nccc(-c3cn(C)c4ccccc34)n2)c(OC)cc1N(C)CCN(C)C` [F1-osimertinib]: in series [1], the “inhibition of NSCLC cell growth (cell viability)” value is given as “significant inhibition of NSCLC cell growth”.

Take `C=CC(=O)Nc1cc(Nc2nccc(-c3cn(C)c4ccccc34)n2)c(OC)cc1N(C)CCN(C)C` [osimertinib, N-(2-{2-dimethylaminoethyl-methylamino}-4-methoxy-5-{[4-(1-methylindol-3-yl)pyrimidin-2-yl]amino}phenyl)prop-2-enamide]: in series [2], the remaining percentage turned out to be 92%. Moreover, the “remaining percentage of the initial concentration” value was “around 35%” in series [3] and “approximately 78%” in series [5]. Further, the “stability when incubated in human plasma” value in series [4] is reported as “decreased rapidly”.

Source of the values: US10633367B2, “Fluorine- and/or deuterium-containing compounds for treating non-small cell lung cancer and related diseases” (X-Cutag Therapeutics, Inc., priority 2017, dated 2020).
